{"source": "paper PMC6325233", "about": "“A Novel Actin Binding Drug with In Vivo Efficacy” (Antimicrobial Agents and Chemotherapy, 2018)", "key": {"[1]": {"molecular_target": "rabbit skeletal muscle filamentous actin (F-actin) (rabbit) (UniProt P68135)", "experiment": "co-sedimentation"}, "[2]": {"system": "Candida albicans strain ATCC 66027", "settings": "cited from earlier work", "description": "Therefore, additional studies related to the perturbation of actin-based functions were performed to confirm that actin was the biological target of occidiofungin. As a dimorphic fungus, C. albicans can grow as a yeast or hypha, and the ability to switch between these forms is linked to the pathogenicity of the organism ([29]). Several reports have established that actin cables play an important role in the switch between yeast and hyphal forms ([30], [31]). The impact of ..."}, "[3]": {"settings": "at doses required for efficacious effect; cited from earlier work", "description": "Natural products with in vitro antifungal properties that target the actin cytoskeleton were previously reported ([51]). […] Occidiofungin, on the other hand, is well tolerated at 5 mg/kg or 20 mg/kg when administered intravenously or subcutaneously, respectively ([22], [25]). This dose is much higher than the MIC of occidiofungin against several fungal pathogens. ..."}}, "note": "pKd: −log10 of the molar value."}
{"molecule": "Occidiofungin (peptide)", "values": [{"measurement": "pKd", "setting": "[1]", "result": 6.00}, {"measurement": "stoichiometry N (occidiofungin per actin monomer)", "setting": "[1]", "result": 24}]}
{"molecule": "C=C1[C@@H](C)[C@H]2[C@H](Cc3ccccc3)NC(=O)[C@]23OC(=O)/C=C/C(=O)CCC[C@@H](C)C/C=C/[C@H]3[C@@H]1O", "note": "[cytochalasin A]", "values": [{"measurement": "effect on hyphal formation", "setting": "[2]", "result": "prevent hyphal formation"}]}
{"molecule": "jasplakinolide", "values": [{"measurement": "toxicity in animals", "setting": "[3]", "result": "limited by their toxicity in animals"}]}
{"molecule": "C/C1=C/C(=O)O[C@@H]2C[C@@H](CC[C@H](C)/C=C\\C=C\\CC1)O[C@@](O)([C@@H]1CSC(=O)N1)C2", "note": "[latrunculin A]", "values": [{"measurement": "effect on hyphal formation", "setting": "[2]", "result": "prevent hyphal formation"}]}
